The text below walks through data of paper PMC8944797, “Novel Antimicrobial Peptides Designed Using a Recurrent Neural Network Reduce Mortality in Experimental Sepsis” (Antibiotics, 2022).

In assay [1] the test system is carbapenem-resistant isolates of Pseudomonas aeruginosa. Put plainly: MIC, broth dilution method (EUCAST). The format is cell-based. The following applies: median (first and third quartile) over n = 17 isolates; Mueller-Hinton broth, 37 °C, 18–20 h; range tested 0 to 32 μg/mL. Here is the method: (§1) The strains of bacteria were isolated in 2021 from patients in the intensive care unit of the Stavropol State Regional Clinical Hospital. Identification and determination of antibiotic resistance of bacterial isolates were carried out using the disk diffusion method as part of a routine microbiological study in accordance with the European Committee on Antimicrobial Susceptibility Testing (EUCAST) protocols in the Department of Clinical Microbiology of the Center of Clinical Pharmacology and Pharmacotherapy.
(§2) The study of the antimicrobial activity of the synthesized peptides was performed by the standard broth dilution method according to the EUCAST guidelines. Briefly, pure bacterial cultures were cultured on a solid nutrient media (mannitol salt agar, BioMedia, Russia). From a fresh morning culture, we prepared a suspension in sterile saline corresponding to a McFarland turbidity standard of 0.5 (which is equivalent to 1–2 × 10^8 CFU/mL). The resulting suspension was dissolved in the BBL^TM Mueller-Hinton broth (Becton, Dickinson and Company, Franklin Lakes, NJ, USA) to obtain an inoculum with an approximate concentration of 5 × 10^5 CFU/mL. The inoculum (100 μL per well) was added to the wells of a sterile 96-well microtiter plate with a U-shaped bottom (Medpolymer, St. Petersburg, Russia). After that, serial two-fold dilutions of tested peptides (100 μL per well) were added to the wells. There were also sterility control wells (Mueller-Hinton broth only, without bacteria) and growth control wells (bacterial inoculum without peptides). Then, the plates were incubated in a thermostat at 37 °C. […] The MIC was taken as the minimum peptide concentration at which there was no visual growth in the corresponding well [26]. The peptides were dissolved in the Mueller–Hinton broth. The experiments with each peptide and bacterial isolate were performed in triplicate (in different plates). MIC values were calculated as median values of three independent replicates (calculations are presented in Supplementary Tables S1–S3).
(§3) Calculations of MICs (median, first, and third quartile) were performed in Microsoft Excel (Supplementary Tables S1–S3). Survival analysis by the Kaplan–Meier method and log-rank (Mantel–Cox) test was performed using GraphPad Prism version 9.2.0 for macOS (GraphPad Software, San Diego, CA, USA, www.graphpad.com, accessed on 29 January 2022).

Assay [2] deals with carbapenem-resistant isolates of Klebsiella aerogenes. Put plainly: MIC, broth dilution method (EUCAST). The format is cell-based. The following applies: median (first and third quartile) over n = 12 isolates; Mueller-Hinton broth, 37 °C, 18–20 h; range tested 0 to 32 μg/mL. Here is the method: as §1, §2, §3
Assay [3] deals with K. pneumoniae-induced sepsis. Put plainly: murine experimental model of K. pneumoniae-induced sepsis, survival. The format is in vivo, ICR (CD-1) mice. The conditions noted are these: for Survival proportions: single i.p. 100 μg dose, n=12. How it is done:
To assess the effectiveness of the studied peptides, a murine model of lethal generalized infection was used. The model of sepsis makes it possible to perform a simple and rapid screening assessment of the effectiveness of new antimicrobial agents in vivo [22, 28].
The ICR (CD-1) laboratory mice (females with an average weight of 30 g) were maintained in the vivarium of the Stavropol State Medical University. The mice (four animals per cage) were housed in temperature-controlled rooms at 24 °C and 50–60% humidity with a 12 h/12 h light/dark cycle and water and food availability ad libitum.
The animals were injected with bacterial suspensions of one of the carbapenem-resistant isolates of K. pneumoniae (isolate #7, Supplementary Table S2) prepared from a fresh morning culture in accordance with the McFarland turbidity standard of 15 (which corresponds to an approximate concentration of 4.5 × 10^9 CFU/mL). To determine the turbidity of the suspension, a DEN-1 densitometer (Biosan, Latvia) was used.
At t = 0 min, all animals were infected with K. pneumoniae: 150 μL of a 4.5 × 10^9 CFU/mL suspension (approx. 6.75 × 10^8 CFU per mice). 30 min after infection, the mice received a single injection of peptides at a dose of 100 μg. Mortality was assessed every 24 h for 5 days. Moribund animals were killed humanely to avoid unnecessary distress.
as §3

The test system of assay [4] is carbapenem-resistant isolates of K. pneumoniae. Put plainly: MIC, broth dilution method (EUCAST). In kind it is cell-based, Klebsiella pneumoniae. The conditions noted are these: median (first and third quartile) over n = 18 isolates; Mueller-Hinton broth, 37 °C, 18–20 h; range tested 0 to 32 μg/mL. How it is done: as §1
as §2, with “S1–S3). […]” for “S1–S3).”
In general terms: Broth dilution looks for growth in wells or tubes with falling amounts of substance.

In the case of “GIFSKLAGKKIKNLLISGLKNIGKEVGM [PEP-36, synthesized LSTM RNN-generated peptide]”, the MIC entry in assay [1], in assay [2] and in assay [4] was “not active” throughout. The Survival proportions in assay [3] (day 1 after infecting) was 91,7%; in assay [3] (day 2 after infecting) it was 75%; in assay [3] (day 3 after infecting), 66,7%. Also, the “survival proportion by the end of the observation period” value in assay [3] (single intraperitoneal 100 μg dose 30 min after infection with 6.75 × 10^8 CFU K. pneumoniae, 5 days, n = 12 mice) turned out to be 66.7%.
Consider “GILSSFKGVLKGAGKNLLGSLKDKLKN [PEP-174, synthesized LSTM RNN-generated peptide; probably printed as PEP-134 in b33]”, for which the MIC result in assay [1], in assay [2] and in assay [4] was “not active” each time.
For “KWKLFKKIWSSVKLKS [PEP-136, synthesized LSTM RNN-generated peptide]”, the MIC entry in assay [1], in assay [2] and in assay [4] was “not active” each time.
